Among the data in patent US11433072B1 (Hikma Pharmaceuticals USA Inc., priority 2021, dated 2022) are Solubility values, retold here.

SMILES strings stand for the structures. Read-outs that look alike come from different tables or passages of the source.

For data set [1] the following is noted: acidic environment; data not shown.
The conditions of data set [2]: cited from earlier work.

In the case of `C=CC(=O)N1CCC[C@@H](n2nc(-c3ccc(Oc4ccccc4)cc3)c3c(N)ncnc32)C1` [ibrutinib, 1-(3R)-3-(4-amino-3-(4-phenoxyphenyl)-1H-pyrazolo[3,4-d]pryimidin-1-yl)prop-2-en-1-one], the Solubility entry is “higher in an acidic environment” in data set [1], “slightly soluble” in data set [2] (HCl at pH 1.2) and “practically insoluble” in data set [2] (aqueous solutions of pH 4.5-8).
